Patent US6723897B2, “Methods for controlling gibberellin levels” (Monsanto Technology, LLC, priority 1998, dated 2004)

How the values were obtained:
[1] = tested on: pMON29801 soybean lines 719 and 724; assay: GA3 soil drench, emergence and shoot length of FMV/asCPScc soybean; type: in vivo, Glycine max; conditions: for Plant height (cm): +3 × 10^−6 M GA3 soil drench, 7 days after planting
Source text: (§1) Thirty-five soybean plants are produced by transformation with pMON29801 (FIG. 7) containing the antisense CPS conserved core (asCPScc) gene driven by constitutive FMV promoter. The seed (R1) from the initial R0 transgenic lines is collected. R1 seeds are sown in 4-inch pots filled with commercial potting soil (Metromix 350) that is saturated with water or GA3 at a rate of either 3×10^−6 or 10^−5 M. Typically, 20 seeds are sown in 10 pots for each treatment, except where the seed supply is limiting. Pots are incubated in a greenhouse routinely used for soybean growth. Emergence is scored versus days after planting (DAP). Two soybean lines, 724 and 720, show a delayed emergence phenotype. Line 724 emergence is 1 to 2 days later than the control.
(§2) The timing of emergence and plant stature at for transgenic (plasmid pMON29801, FMV/asCPScc) soybean line 724 is rescued by sowing seeds in soil saturated with 3×10^−6 M GA3. At 7 days after planting (DAP), the GA3 treatment to the seeds rescued plant stature to within 10% of the A3237 control. As an additional control, soybean (A3237) seeds are coated with different concentrations of a commercial formulation of GA3 (Release®) blended with talc and sown in sand saturated with 3 mg/L ancymidol and grown in a greenhouse. Plant height is measured at 6 DAP. […] This rate is equivalent to approximately 62 mg GA3 per acre (assuming 140,000 seeds/acre).
(§3) GA3 added to plasmid pMON29801 transgenic soybean seeds as a soil drench also restores soybean emergence timing and plant height during early seedling growth. Rates of GA3 between 1×10^−6 and 1×10^−5 M, when added to soil either immediately before planting or immediately after, restores normal shoot length in emerged Line #719 seedlings (Table 5).

[2] = tested on: A3237 soybean; assay: GA3 soil drench, shoot length of control soybean; type: in vivo, Glycine max; conditions: line A3237; +3 × 10^−6 M GA3 soil drench; 7 days after planting
Source text: as §1, §3

[3] = tested on: soybean (A3237) in sand saturated with 3 mg/L ancymidol; assay: GA3 seed coating, reversal of ancymidol inhibition of soybean stature; type: in vivo, Glycine max; conditions: 3 mg GA3/kg seed (Release blended with talc); plant height at 6 DAP
Experimental: as §2

[4] = Concentration of 14C-GA3 in germinating soybean seedlings after seed treatment; type: in vivo, Glycine max
Source text: Application of ^14C-GA3 to Asgrow 3237 soybeans as a seed treatment via the hilum at a rate (5-20 ppm) within the range effective in rescuing the hypocotyl of dwarf, GA-deficient plants causes a substantial oversupply in the level of GA3 compared to the levels of endogenous bioactive gibberellins GA1 and GA4 in germinating soybean seeds (FIG. 39). The data upon which FIG. 39 is based are taken from the experiment described below in the section entitled “Determination of half-lives and distribution of ^14C-labeled GA compounds in planta”. More particularly, the data in FIG. 39 are taken from the experiment in which ^14C-GA3 is applied to the hilum at 20 ppm.
The concentration of GA3 in the seedling axis appeared to be directly proportional to the amount of GA3 applied to the seed.
The details are as follows.

[5] = tested on: wild-type soybean variety A4922; assay: GA3 seed treatment, soybean stand count and yield in the field; type: in vivo, Glycine max
Source text: Treated seed is planted about 1 inch deep in previously disced soil using a cone planter. The rows are about 30 inches (76.2 cm) apart, and 15 feet (457.2 cm) long. Seeds are spaced about 3 inches (7.62 cm) apart within the rows. The emerged plants are counted periodically, and seed yields are obtained at harvest. The plant counts and yields are converted to a per acre basis. […] The decrease in plant population per acre is due to lack of emergence, in part due to broken and unhooked hypocotyls. In addition, some of the emerged plants are abnormal, e.g., with small, broken cotyledons, etc.

[6] = Half-lives of 14C-labelled GA compounds in soil; conditions: spinks soil, aerobic, 25° C., darkness; read-out: Half-life (days) in soil (converted)
Experimental: Metabolic studies in soil are conducted with ^14C-labelled GA compounds in order to investigate the route and rate of compound degradation in soil under aerobic conditions. ^14C-labelled GA compounds are obtained from Lew Mander (Australian National University). The ^14C-labelled compounds dissolved in 0.2-2 ml water:ethanol, 80:20, v/v, are applied to 50-60 gm portions of spinks soil (USDA classification Loamy Sand: 82% sand, 14% silt, and 4% clay) in 250 ml centrifuge bottles at a rate of 0.1-0.2 ppm (6-12 μg; approximately 1,200,000 dpm per soil sample. The soil samples are placed in a glass dessicator which served as a container for all soil bottles. The glass dessicator is connected to three separate trapping solutions in series, each containing 20 ml of ethylene glycol:ethanolamine, 2:1, v/v. Air is pulled into the glass dessicator and through the trapping solutions by house vacuum. The trapping solutions are used to collect ^14C-volatiles and ^14C-CO2. Soil samples are incubated for eight days at 25° C. in darkness. For most experiments, duplicate soil samples are harvested 0, 6, 12, 24, 46, 72, 120, and 192 hours after initial treatment. Soil samples are extracted twice with 100 ml of water:methanol, 20:80, v/v, and the combined extracts are analyzed by HPLC under the same conditions as described for the determination of half-lives of GA compounds in planta, above.

Compound: C=C1C[C@]23C[C@@]1(O)CC[C@H]2[C@@]12C=C[C@H](O)[C@@](C)(C(=O)O1)[C@H]2[C@@H]3C(=O)O [GA3, gibberellic acid]
- Plant height (cm) ([1]; R1 line 719): 11.3 (1.0) cm
- Plant height (cm) ([1]; R1 line 724): 10.9 (0.9) cm
- plant stature, difference from the A3237 control ([1]; line 724, soil saturated with 3×10^−6 M GA3, 7 DAP): ≤ 10%
- Plant height (cm) [2]: 14.9 (0.3) cm
- reversal of ancymidol inhibition of soybean stature [3]: Good reversal of ancymidol inhibition of soybean stature
- GA3 in seedling axis relative to combined endogenous bioactive GAs in untreated tissue ([4]; 20 ppm, 1 DAP): approximately 100 times higher
- concentration at 1 day after planting ([4]; Asgrow 3237, soybean (Glycine max), seedling axis, other: seed treatment applied to the hilum, ^14C-GA3 applied to the hilum at 20 ppm, one day after planting, read-out: calculated concentration of GA3 delivered to the seedling axis): 4.31 µM
- Plants per Acre ([5]; 5 ppm GA3 seed treatment): 41,458
- Yield (bushels/acre) ([5]; 5 ppm GA3 seed treatment): 41.6 bushels/acre
- Plants per Acre ([5]; 10 ppm GA3 seed treatment): 35,133
- Yield (bushels/acre) ([5]; 10 ppm GA3 seed treatment): 31.9 bushels/acre
- Plants per Acre ([5]; 15 ppm GA3 seed treatment): 30,566
- Yield (bushels/acre) ([5]; 15 ppm GA3 seed treatment): 31.4 bushels/acre
- half-life [6]: 0.5 days
